Laboratory results taken from article PMC6105642, “A platform for discovery of functional cell-penetrating peptides for efficient multi-cargo intracellular delivery” (Scientific Reports, 2018).
Square brackets hold non-standard residues; d marks the D form. Peptide text beside a SMILES is read from it.

How the values were obtained:
T47D cells = test: ^DPMIα delivery cell viability assay; assay type: cell-based, human; details: 48 h incubation; presence of sera; resazurin reduction potential
Method: A variety of cell types and cargos confirmed the potency and versatility of Phylomer CPP delivery. Different functional assays applied readouts designed to directly quantify delivery of an established biologic cargo. […] CPP_^DPMIα synthetic peptides (Supplementary Table 7 and Fig. 3a, cargo 2) reduced viability of human breast tumor cells (T47D) in the presence of sera, indicating the successful delivery of ^DPMIα into the cells (Fig. 5a).
All cell viability studies were performed in the presence of FCS. Cells were seeded at 2.5–5 × 10^3 cells/well, depending on cell line, in 96-well plates (PAP assays: CHO-K1 at 3 × 10^3 cells/well; peptide cytotoxicity assays: CHO-K1 at 5 × 10^3 cells/well; Bouganin assay: CHO-K1 and CHO-K1/EGFR at 2.5 × 10^3 cells/well; ^DPMIα assays: T47D at 5 × 10^3 cells/well; Omomyc assays: all cell lines at 5 × 10^3 cells/well). In brief, adherent cells were allowed to adhere for 24 h prior to the addition of treatments whereas suspension cell lines were treated immediately following seeding. […] Membrane integrity was assessed by the release of LDH into the media via the CytoTox-ONE reagent (Promega). Metabolic activity was measured either by resazurin reduction potential using PrestoBlue (Life Technologies) or by ATP activity using CellTitre-Glo (Promega). […] IC50 values were calculated using Prism (version 7.0a, GraphPad).

T47D (breast cancer) = test: Omomyc cell viability assay (ATP activity); assay type: cell-based, human; details: 48 h
Text: (§1) Next 1746c27 was used to deliver the Omomyc[45],[46] protein cargo. This well-characterized dominant-negative protein directly binds and inhibits the transcription factor MYC. A master regulator of critical cellular processes, MYC is an intracellular oncoprotein target deemed “undruggable” using conventional biological therapeutics. Treatment with recombinant 1746c27_Omomyc (Fig. 3a, cargo 4) induced a dose-dependent decrease in cell viability in MYC-dependent blood cancer cell lines and T47D cells in the presence of sera. […] The potency of 1746c27_Omomyc was greater than small molecule inhibitors of MYC, 10058-F4 and KJ-Pyr9 (Supplementary Fig. 8).
(§2) All cell viability studies were performed in the presence of FCS. […] Membrane integrity was assessed by the release of LDH into the media via the CytoTox-ONE reagent (Promega). Metabolic activity was measured either by resazurin reduction potential using PrestoBlue (Life Technologies) or by ATP activity using CellTitre-Glo (Promega). […] IC50 values were calculated using Prism (version 7.0a, GraphPad).

AMO-1 (plasmacytoma) = test: Omomyc cell viability assay (ATP activity); assay type: cell-based; details: 48 h
Text: as §1, §2

[1] = tested on: HL-60 (promyelocytic leukemia); test: Omomyc cell viability assay (ATP activity); assay type: cell-based; details: 48 h
Text: as §1, §2

CHO-K1 cells = test: Peptide cytotoxicity, cell viability by resazurin reduction; assay type: cell-based; details: CPP alone up to 50 µM, 24 h and 48 h, presence of sera
Method: To ensure that 1746 and 1746c27 are not innately cytotoxic, we assessed their effect on cell viability. CHO-K1 cells were treated with CPPs in the presence of sera at 24 h (Fig. 4a) and 48 h (Fig. 4b). The effects of CPPs on cellular membrane stability were assessed using a LDH enzymatic assay, measuring LDH release at 2 h (Fig. 4c) and 24 h (Fig. 4d) after peptide addition.
All cell viability studies were performed in the presence of FCS. Cells were seeded at 2.5–5 × 10^3 cells/well, depending on cell line, in 96-well plates (PAP assays: CHO-K1 at 3 × 10^3 cells/well; peptide cytotoxicity assays: CHO-K1 at 5 × 10^3 cells/well; Bouganin assay: CHO-K1 and CHO-K1/EGFR at 2.5 × 10^3 cells/well; ^DPMIα assays: T47D at 5 × 10^3 cells/well; Omomyc assays: all cell lines at 5 × 10^3 cells/well). In brief, adherent cells were allowed to adhere for 24 h prior to the addition of treatments whereas suspension cell lines were treated immediately following seeding. Following 2–48 h incubations with treatments, cell viability was measure by a variety of methods. Membrane integrity was assessed by the release of LDH into the media via the CytoTox-ONE reagent (Promega). Metabolic activity was measured either by resazurin reduction potential using PrestoBlue (Life Technologies) or by ATP activity using CellTitre-Glo (Promega). […] IC50 values were calculated using Prism (version 7.0a, GraphPad).

C57BL/10ScSn^mdx mice = test: Exon skipping in vivo by RT-PCR and Western blot; set-up: species or system mouse; details: five IP injections over two weeks, 4 nmoles per dose; RT-PCR / immunoblot; diaphragm, tibialis anterior, heart
Method: Exon skipping in vivo was evaluated at the (a, c) RNA and (b) protein level in the Duchenne muscular dystrophy mouse disease model. RNA was extracted from tissues of C57BL/10ScSn^mdx mice treated with five intra-peritoneal injections of CPP_PMO cargo over two weeks at 4 nmoles per dose (injected volume increased with increased weight of the mice). Pip6, a traditional carrier CPP for peptide-oligonucleotide conjugates in the mdx disease model of DMD^9, was tested in vivo in parallel for comparison. All samples were loaded onto the gel using normalization by myosin densitometry, to enable a quantitative comparison.^10
Tissues were sectioned (6 µm thickness) before adding lysis buffer. Otherwise exon skipping assays and RT-PCR detection were performed following the same protocols used for detection of exon skipping in vitro in myoblasts cells (see Methods of main text).
Samples were vortexed for 10 sec, sonicated at a setting of 30/100 (Sonics sonicator) for 6 x 1 sec pulses, heated at 95 °C for 5 min and centrifuged at 14,000rpm on a Beckman microfuge for 4 min before loading. Total protein was quantitated by BCA assay (Pierce). Average total protein concentration was 2.3 µg/µl. […] Coomassie stained bands were analysed using Bio1D software and the results were used as a loading control to provide equal loading for the western gel that followed. […]

C57BL/6J mice = test: Serum parameters of kidney and liver toxicity in mice; assay type: in vivo, mouse; details: 40 mg/kg/day IP for 7 days, n = 6
Method: To examine 1746c27 toxicity in vivo, a cohort of adult male C57BL/6J mice (n = 6) were treated with the CPP. Following approved standard preliminary toxicity testing guidelines (Food and Drug Administration, FDA, and European Medicines Agency, EMA), mice were injected intraperitoneally daily for 7 days with 40 mg/kg of 1746c27. After a further 8 days the mice were culled (on day 15) and serum was extracted and used to examine kidney and liver toxicity. Urea, creatinine, aspartate transaminase (AST) and alanine transaminase (ALT) concentrations were measured. […] ALT (p = 0.054) and creatinine (p = 0.01) levels were lower compared to untreated control mice, which supports the finding of minimal toxicity.
All mouse studies were approved by the Animal Ethics Committee of The University of Western Australia in accordance with the Australian Code of Practice for the Care and Use of Animals for Scientific Purposes (NH&MRC, 8th Edition, 2013). Studies were performed using adult male C57BL/6J mice weighing approximately 20 g. Mice were treated with 1746c27 (40 mg/kg/day intraperitoneally) for 7 days (day 1–7), followed by no treatment on days 8–15. On day 15, mice were anesthetized with intraperitoneal injection of pentobarbitone sodium (240 mg/kg), and their terminal blood collected. Serum was extracted and used to measure kidney and liver toxicity. Urea and creatinine concentration was assessed using QuantiChrom Urea and Creatinine assay kits, respectively (BioAssay Systems). Aspartate transaminase (AST) and alanine transaminase (ALT) concentration were measured using EnzyChrom Aspartate Transaminase and Alanine Transaminase assay kits, respectively (BioAssay Systems). All assays were performed as per manufacturer’s instructions, using a spectrophotometer (PowerWave XS).

Row | Compound | IC50 (T47D cells) | effect on cell viability, in words (T47D (breast cancer)) | effect on cell viability, in words (AMO-1 (plasmacytoma)) | effect on cell viability, in words [1] | cytotoxic activity, cell viability (CHO-K1 cells) | exon 23 skipping in tissues, in words (C57BL/10ScSn^mdx mice) | toxicity in vivo, in words (C57BL/6J mice) | ALT Mean (C57BL/6J mice; serum day 15) | AST Mean (C57BL/6J mice; serum day 15) | Creatinine Mean (C57BL/6J mice; serum day 15) | Urea Mean (C57BL/6J mice; serum day 15)
1 | CC(=O)NCC(=O)N[C@@H](CCCNC(=N)N)C(=O)N[C@@H](CCCCN)C(=O)N[C@@H](CCCCN)C(=O)N[C@@H](CCCNC(=N)N)C(=O)N[C@@H](CCCNC(=N)N)C(=O)N[C@@H](CCC(N)=O)C(=O)N[C@@H](CCCNC(=N)N)C(=O)N[C@@H](CCCNC(=N)N)C(=O)N[C@@H](CCCNC(=N)N)C(=O)NCC(=O)N[C@@H](C)C(=O)N[C@@H](CO)C(=O)N[C@@H](C(=O)N[C@H](CC(N)=O)C(=O)N[C@H](Cc1c[nH]c2ccccc12)C(=O)N[C@H](Cc1ccc(O)cc1)C(=O)N[C@H](C)C(=O)N[C@H](CC(N)=O)C(=O)N[C@H](CC(C)C)C(=O)N[C@H](CCC(=O)O)C(=O)N[C@H](CCCCN)C(=O)N[C@H](CC(C)C)C(=O)N[C@H](CC(C)C)C(=O)N[C@H](CCCNC(=N)N)C(N)=O)[C@H](C)O [TAT_^DPMIα, reference compound] (Ac-GRKKRRQRRRGAS[dT][dN][dW][dY][dA][dN][dL][dE][dK][dL][dL][dR]-NH2) | 36.6 µM |  |  |  |  |  |  |  |  |  | 
2 | Ac-KKKKQPPKPKKPKTQEKKKKQPPKPKR-NH2 (N-terminus and C-terminus assumed) [1746c27] |  | no notable effect on cell viability | no notable effect on cell viability | no notable effect on cell viability | no measurable cytotoxicity | not detected | minimal evidence of toxicity | 59.73 U/L | 84.98 U/L | 0.33 mg/dL | 50.99 mg/dL
3 | Ac-PLKPKKPKTQEKKKKQPPKPKKPKTQEKKKKQPPKPKRGAS[dT][dN][dW][dY][dA][dN][dL][dE][dK][dL][dL][dR]-NH2 [1746_^DPMIα] | 9.1 µM |  |  |  |  |  |  |  |  |  | 
